Source: ChEMBL document CHEMBL3046568, “Synthesis, antimicrobial and DNA cleavage studies of some 4-aryloxymethylcoumarins obtained by reaction of 4-bromomethylcoumarins with bidentate nucleophiles” (2012)
≈ marks a conversion by molar mass, not a printed value. Calls of active or inactive are those of the source. No cut-off for these calls is given here.

Key:
[1] = test system: Enterococcus faecalis; experiment: Antibacterial activity against Enterococcus faecalis MTCC 3382 after 24 hr by disk diffusion method; format: functional; settings: for MIC: Enterococcus faecalis, MTCC 3382, 24 h
[2] = test system: Escherichia coli; experiment: Induction of Escherichia coli MTCC 1089 DNA cleavage at 25 ug after 2 hr by agarose gel electrophoresis
[3] = test system: Aspergillus niger; experiment: Induction of Aspergillus niger DNA cleavage at 50 ug after 2 hr by agarose gel electrophoresis
[4] = test system: Staphylococcus aureus; experiment: Antibacterial activity against Staphylococcus aureus MTCC 3160 after 24 hr by disk diffusion method; format: functional; settings: for MIC: Staphylococcus aureus, MTCC 3160, 24 h
[5] = test system: Penicillium chrysogenum; experiment: Antifungal activity against Penicillium chrysogenum after 3 to 4 days by serial dilution method; format: functional; settings: for MIC: Penicillium chrysogenum
[6] = test system: Pseudomonas aeruginosa; experiment: Antibacterial activity against Pseudomonas aeruginosa MTCC 1034 after 24 hr by disk diffusion method; format: functional; settings: for MIC: Pseudomonas aeruginosa, MTCC 1034, 24 h
[7] = test system: Fusarium oxysporum; experiment: Antifungal activity against Fusarium oxysporum after 3 to 4 days by serial dilution method; format: functional; settings: for MIC: Fusarium oxysporum
[8] = test system: Candida albicans; experiment: Antifungal activity against Candida albicans after 3 to 4 days by serial dilution method; format: functional; settings: for MIC: Candida albicans
[9] = test system: Mucor fuscus; experiment: Antifungal activity against Mucor fuscus after 3 to 4 days by serial dilution method; format: functional; settings: for MIC: Mucor fuscus
[10] = test system: Aspergillus niger; experiment: Antifungal activity against Aspergillus niger after 3 to 4 days by serial dilution method; format: functional; settings: for MIC: Aspergillus niger
[11] = test system: Aspergillus fumigatus; experiment: Antifungal activity against Aspergillus fumigatus after 3 to 4 days by serial dilution method; format: functional; settings: for MIC: Aspergillus fumigatus
[12] = test system: Escherichia coli; experiment: Induction of Escherichia coli MTCC 1089 DNA cleavage at 50 ug after 2 hr by agarose gel electrophoresis
[13] = test system: Escherichia coli; experiment: Antibacterial activity against Escherichia coli MTCC 1089 after 24 hr by disk diffusion method; format: functional; settings: for MIC: Escherichia coli, MTCC 1089, 24 h
[14] = test system: Bacillus subtilis; experiment: Antibacterial activity against Bacillus subtilis MTCC 297 after 24 hr by disk diffusion method; format: functional; settings: for MIC: Bacillus subtilis, MTCC 297, 24 h
[15] = test system: Klebsiella pneumoniae; experiment: Antibacterial activity against Klebsiella pneumoniae MTCC 3384 after 24 hr by disk diffusion method; format: functional; settings: for MIC: Klebsiella pneumoniae, MTCC 3384, 24 h
[16] = test system: Staphylococcus aureus; experiment: Induction of Staphylococcus aureus MTCC 3160 DNA cleavage at 50 ug after 2 hr by agarose gel electrophoresis
[17] = test system: Aspergillus niger; experiment: Induction of Aspergillus niger DNA cleavage at 25 ug after 2 hr by agarose gel electrophoresis
[18] = test system: Staphylococcus aureus; experiment: Induction of Staphylococcus aureus MTCC 3160 DNA cleavage at 25 ug after 2 hr by agarose gel electrophoresis

Structure (SMILES)	inhibition zone (IZ) [1] [mm]	MIC [1] [µg/mL]	Activity [3]	inhibition zone (IZ) [4] [mm]	MIC [4] [µg/mL]	inhibition zone (IZ) [5] [mm]	MIC [5] [µg/mL]	inhibition zone (IZ) [6] [mm]	MIC [6] [µg/mL]	inhibition zone (IZ) [7] [mm]	inhibition zone (IZ) [8] [mm]	MIC [8] [µg/mL]	inhibition zone (IZ) [9] [mm]	MIC [9] [µg/mL]	inhibition zone (IZ) [10] [mm]	MIC [10] [µg/mL]	inhibition zone (IZ) [11] [mm]	MIC [11] [µg/mL]	Activity [12]	inhibition zone (IZ) [13] [mm]	further results
COc1ccc2oc(=O)cc(COc3cccc(OCc4cc(=O)oc5ccc(OC)cc45)c3)c2c1	21	6.25 (≈ 12.8 µM)	Active	19	6.25 (≈ 12.8 µM)	17	12.5 (≈ 25.7 µM)	24	6.25 (≈ 12.8 µM)	15	17	6.25 (≈ 12.8 µM)	20	6.25 (≈ 12.8 µM)	18	12.5 (≈ 25.7 µM)	18	12.5 (≈ 25.7 µM)	Active	17	Activity [2]: Active; MIC [7]: 12.5 µg/mL (≈ 25.7 µM); MIC [13]: 12.5 µg/mL (≈ 25.7 µM); inhibition zone (IZ) [14]: 18 mm; MIC [14]: 6.25 µg/mL (≈ 12.8 µM); inhibition zone (IZ) [15]: 20 mm; MIC [15]: 6.25 µg/mL (≈ 12.8 µM); Activity [16]: Active
O=c1cc(COc2cccc(OCc3cc(=O)oc4ccc(Cl)cc34)c2)c2cc(Cl)ccc2o1	23	6.25 (≈ 12.6 µM)	Active	20	6.25 (≈ 12.6 µM)	20	6.25 (≈ 12.6 µM)	22	6.25 (≈ 12.6 µM)	16	19	6.25 (≈ 12.6 µM)	22	6.25 (≈ 12.6 µM)	24	6.25 (≈ 12.6 µM)	22	6.25 (≈ 12.6 µM)	Active	15	Activity [17]: Active; MIC [7]: 12.5 µg/mL (≈ 25.2 µM); MIC [13]: 12.5 µg/mL (≈ 25.2 µM); inhibition zone (IZ) [14]: 19 mm; MIC [14]: 6.25 µg/mL (≈ 12.6 µM); inhibition zone (IZ) [15]: 18 mm; MIC [15]: 6.25 µg/mL (≈ 12.6 µM); Activity [16]: Active
COc1ccc2oc(=O)cc(COc3cccc(O)c3)c2c1	21	6.25 (≈ 21 µM)	Active	20	6.25 (≈ 21 µM)	20	6.25 (≈ 21 µM)	25	6.25 (≈ 21 µM)	16	19	6.25 (≈ 21 µM)	19	6.25 (≈ 21 µM)	20	6.25 (≈ 21 µM)	17	12.5 (≈ 41.9 µM)	Active	18	Activity [2]: Active; MIC [7]: 12.5 µg/mL (≈ 41.9 µM); MIC [13]: 12.5 µg/mL (≈ 41.9 µM); inhibition zone (IZ) [14]: 18 mm; MIC [14]: 6.25 µg/mL (≈ 21 µM); inhibition zone (IZ) [15]: 21 mm; MIC [15]: 6.25 µg/mL (≈ 21 µM); Activity [16]: Active
COc1ccc2oc(=O)cc(COc3cccc(NC(C)=O)c3)c2c1	20	6.25 (≈ 18.4 µM)	Active	19	6.25 (≈ 18.4 µM)	20	6.25 (≈ 18.4 µM)	25	6.25 (≈ 18.4 µM)	16	19	6.25 (≈ 18.4 µM)	21	6.25 (≈ 18.4 µM)	21	6.25 (≈ 18.4 µM)	21	6.25 (≈ 18.4 µM)	Active	17	Activity [2]: Active; MIC [7]: 12.5 µg/mL (≈ 36.8 µM); MIC [13]: 12.5 µg/mL (≈ 36.8 µM); inhibition zone (IZ) [14]: 19 mm; MIC [14]: 6.25 µg/mL (≈ 18.4 µM); inhibition zone (IZ) [15]: 21 mm; MIC [15]: 6.25 µg/mL (≈ 18.4 µM); Activity [16]: Active
O=c1cc(COc2cccc(O)c2)c2cc(Cl)ccc2o1	22	6.25 (≈ 20.6 µM)	Active	21	6.25 (≈ 20.6 µM)	22	6.25 (≈ 20.6 µM)	24	6.25 (≈ 20.6 µM)	17	20	6.25 (≈ 20.6 µM)	21	6.25 (≈ 20.6 µM)	24	6.25 (≈ 20.6 µM)	21	6.25 (≈ 20.6 µM)	Active	17	Activity [17]: Active; MIC [7]: 12.5 µg/mL (≈ 41.3 µM); Activity [18]: Active; MIC [13]: 12.5 µg/mL (≈ 41.3 µM); inhibition zone (IZ) [14]: 20 mm; MIC [14]: 6.25 µg/mL (≈ 20.6 µM); inhibition zone (IZ) [15]: 19 mm; MIC [15]: 6.25 µg/mL (≈ 20.6 µM); Activity [16]: Active
CCN(CC)c1cccc(OCc2cc(=O)oc3ccc(Cl)cc23)c1	22	6.25 (≈ 17.5 µM)	Active	21	6.25 (≈ 17.5 µM)	23	6.25 (≈ 17.5 µM)	25	6.25 (≈ 17.5 µM)	16	18	6.25 (≈ 17.5 µM)	21	6.25 (≈ 17.5 µM)	22	6.25 (≈ 17.5 µM)	22	6.25 (≈ 17.5 µM)	Active	15	Activity [17]: Active; MIC [7]: 12.5 µg/mL (≈ 34.9 µM); MIC [13]: 12.5 µg/mL (≈ 34.9 µM); inhibition zone (IZ) [14]: 20 mm; MIC [14]: 6.25 µg/mL (≈ 17.5 µM); inhibition zone (IZ) [15]: 19 mm; MIC [15]: 6.25 µg/mL (≈ 17.5 µM); Activity [16]: Active
CC(=O)Nc1cccc(OCc2cc(=O)oc3ccc(Cl)cc23)c1	23	6.25 (≈ 18.2 µM)	Active	21	6.25 (≈ 18.2 µM)	23	6.25 (≈ 18.2 µM)	23	6.25 (≈ 18.2 µM)	16	20	6.25 (≈ 18.2 µM)	22	6.25 (≈ 18.2 µM)	22	6.25 (≈ 18.2 µM)	22	6.25 (≈ 18.2 µM)	Active	16	Activity [17]: Active; MIC [7]: 12.5 µg/mL (≈ 36.4 µM); MIC [13]: 12.5 µg/mL (≈ 36.4 µM); inhibition zone (IZ) [14]: 20 mm; MIC [14]: 6.25 µg/mL (≈ 18.2 µM); inhibition zone (IZ) [15]: 19 mm; MIC [15]: 6.25 µg/mL (≈ 18.2 µM); Activity [16]: Active
CCN(CC)c1cccc(OCc2cc(=O)oc3ccc(OC)cc23)c1	20	6.25 (≈ 17.7 µM)	Active	20	6.25 (≈ 17.7 µM)	23	6.25 (≈ 17.7 µM)	25	6.25 (≈ 17.7 µM)	15	17	6.25 (≈ 17.7 µM)	19	6.25 (≈ 17.7 µM)	20	6.25 (≈ 17.7 µM)	19	6.25 (≈ 17.7 µM)	Active	17	Activity [2]: Active; MIC [13]: 12.5 µg/mL (≈ 35.4 µM); inhibition zone (IZ) [14]: 18 mm; MIC [14]: 6.25 µg/mL (≈ 17.7 µM); inhibition zone (IZ) [15]: 20 mm; MIC [15]: 6.25 µg/mL (≈ 17.7 µM); Activity [16]: Active
O=c1cc(COc2cccc(O)c2)c2cc(Br)ccc2o1	18	6.25 (≈ 18 µM)	Active	19	6.25 (≈ 18 µM)	19	6.25 (≈ 18 µM)	23	6.25 (≈ 18 µM)	13	17	6.25 (≈ 18 µM)	18	12.5 (≈ 36 µM)	21	6.25 (≈ 18 µM)	18	12.5 (≈ 36 µM)	Active	15	MIC [7]: 25 µg/mL (≈ 72 µM); MIC [13]: 12.5 µg/mL (≈ 36 µM); inhibition zone (IZ) [14]: 17 mm; MIC [14]: 6.25 µg/mL (≈ 18 µM); inhibition zone (IZ) [15]: 19 mm; MIC [15]: 6.25 µg/mL (≈ 18 µM); Activity [16]: Active
